Read-outs that look alike come from different tables or passages of the source.
System: AMPA receptors
Test: Excitatory fluxes induced by AMPA in Xenopus oocytes (2-electrode voltage-clamp)
Assay type: cell-based
Settings: Xenopus oocytes injected with rat cerebral cortex poly-(A+) mRNA, AMPA 10 μM
Method: Study of the Excitatory Fluxes Induced by AMPA in Xenopus oocytes
mRNAs are prepared from cerebral cortex of male Wistar rat by the guanidinium thiocyanate/phenol/chloroform method. The poly-(A^+) mRNAs are isolated by chromatography on oligo-dT cellulose and injected in an amount of 50 ng per oocyte. The oocytes are left to incubate for 2 to 3 days at 18° C. to allow expression of the receptors and are then stored at from 8 to 10° C.
Electrophysiological recording is carried out in a Plexiglass® chamber at from 20 to 24° C. in OR2 medium (J. Exp. Zool., 1973, 184, 321-334) by the 2-electrode “voltage-clamp” method, a 3rd electrode being placed in the bath to serve as reference.
All the compounds are administered via the incubation medium and the electric current is measured at the end of the period of administration. AMPA is used at a concentration of 10 μM. For each compound studied, the concentration that doubles (EC2×) or quintuples (EC5×) the intensity of the current induced by AMPA alone (5 to 50 nA) is determined.

O=S1(=O)NC2CCCN2c2ccc(OC(=S)Oc3ccccc3)cc21 (centres unmarked) [Example 2, O-(5,5-Dioxido-2,3,3a,4-tetrahydro-1H-pyrrolo[2,1-c][1,2,4]-benzothiadiazin-7-yl)O-phenyl thiocarbonate]
Concentration doubling (EC2×) or quintupling (EC5×) the AMPA current (read-out: EC2× (concentration that doubles the intensity of the current induced by AMPA alone)): 1.8 µM
Concentration doubling (EC2×) or quintupling (EC5×) the AMPA current (read-out: EC5× (concentration that quintuples the intensity of the current induced by AMPA alone)): 9.6 µM

From patent US7262189B2, “Benzothiazine and benzothiadiazine derivatives, method for preparing same and pharmaceutical compositions containing same” (Les Laboratoires Server, priority 2001, dated 2007)
